The record followed here is ChEMBL document CHEMBL1909046, “DrugMatrix in vitro pharmacology data”.

Chain of 5-hydroxytryptamine receptor 6 (P50406 whole entry): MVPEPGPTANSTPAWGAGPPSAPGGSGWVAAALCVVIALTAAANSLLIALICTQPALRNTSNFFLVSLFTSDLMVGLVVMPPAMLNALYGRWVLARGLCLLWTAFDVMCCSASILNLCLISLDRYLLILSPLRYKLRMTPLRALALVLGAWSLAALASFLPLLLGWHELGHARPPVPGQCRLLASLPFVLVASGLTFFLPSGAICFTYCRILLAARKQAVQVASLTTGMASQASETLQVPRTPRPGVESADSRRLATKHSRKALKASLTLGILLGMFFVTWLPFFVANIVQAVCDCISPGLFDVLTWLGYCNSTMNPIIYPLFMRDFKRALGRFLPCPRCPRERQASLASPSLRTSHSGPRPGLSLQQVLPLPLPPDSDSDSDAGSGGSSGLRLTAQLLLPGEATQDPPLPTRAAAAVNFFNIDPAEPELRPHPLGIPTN
Chain of Sigma non-opioid intracellular receptor 1 (Q99720 whole entry): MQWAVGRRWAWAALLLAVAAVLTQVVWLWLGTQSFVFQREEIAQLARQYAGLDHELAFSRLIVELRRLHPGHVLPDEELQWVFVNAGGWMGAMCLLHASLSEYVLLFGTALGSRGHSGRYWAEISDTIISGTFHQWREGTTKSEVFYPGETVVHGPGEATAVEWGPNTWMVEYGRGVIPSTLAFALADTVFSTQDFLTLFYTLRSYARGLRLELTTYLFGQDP
Chain of Melanocortin receptor 4 (P32245 whole entry): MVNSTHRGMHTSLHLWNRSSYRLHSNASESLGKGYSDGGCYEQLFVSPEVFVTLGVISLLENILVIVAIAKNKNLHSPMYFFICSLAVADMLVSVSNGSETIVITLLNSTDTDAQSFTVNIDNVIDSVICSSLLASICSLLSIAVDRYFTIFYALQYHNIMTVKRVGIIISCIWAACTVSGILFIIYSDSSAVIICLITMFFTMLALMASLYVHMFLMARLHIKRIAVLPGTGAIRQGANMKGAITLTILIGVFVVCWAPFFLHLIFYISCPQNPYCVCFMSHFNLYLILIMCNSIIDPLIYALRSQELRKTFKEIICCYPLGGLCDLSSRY

Tested on in the first assay: not listed separately
As to the kind of experiment: DRUGMATRIX: Glutamate, Kainate radioligand binding (ligand: [3H] Kainic acid). The assay is classed as cell membranes, Rattus norvegicus, Wistar, Brain, Membrane. The following applies: Not Active = under 50% inhibition at 10 µM.
On to `CC(C)(C)NC(=O)[C@@H]1CN(Cc2cccnc2)CCN1C[C@@H](O)C[C@@H](Cc1ccccc1)C(=O)N[C@H]1c2ccccc2C[C@H]1O.O`, for which the IC50 result is reported as “Not Active” and the Ki entry was “Not Active”.

Tested on in the next assay: not listed separately
As to the kind of experiment: DRUGMATRIX: ATPase, Na+/K+ enzyme inhibition (substrate: ATP). The assay is classed as tissue-based, Sus scrofa, Heart. The note with it: Not Active = under 50% inhibition at 10 µM.
Turning to `CC(C)(C)NC(=O)[C@@H]1CN(Cc2cccnc2)CCN1C[C@@H](O)C[C@@H](Cc1ccccc1)C(=O)N[C@H]1c2ccccc2C[C@H]1O.O`, the IC50 result is recorded as “Not Active” and the Ki result is given as “Not Active”.

Tested on in the next assay: not listed separately
Kind of assay: DRUGMATRIX: Nicotinic Acetylcholine radioligand binding (ligand: [125I] Epibatidine). It is filed as cell membranes, Membrane. The following applies: imr-32; Not Active = under 50% inhibition at 10 µM.
`CC(C)(C)NC(=O)[C@@H]1CN(Cc2cccnc2)CCN1C[C@@H](O)C[C@@H](Cc1ccccc1)C(=O)N[C@H]1c2ccccc2C[C@H]1O.O`: the IC50 entry is “Not Active” and the Ki entry is given as “Not Active”.

The target of a further assay is Kappa-type opioid receptor (Homo sapiens, UniProt P41145). Kind of assay: DRUGMATRIX: Opiate kappa (OP2, KOP) radioligand binding (ligand: [3H] Diprenorphine). The assay is classed as cell membranes, HEK293, Membrane. The following applies: hek293; Not Active = under 50% inhibition at 10 µM.
Chain of Kappa-type opioid receptor (P41145 whole entry): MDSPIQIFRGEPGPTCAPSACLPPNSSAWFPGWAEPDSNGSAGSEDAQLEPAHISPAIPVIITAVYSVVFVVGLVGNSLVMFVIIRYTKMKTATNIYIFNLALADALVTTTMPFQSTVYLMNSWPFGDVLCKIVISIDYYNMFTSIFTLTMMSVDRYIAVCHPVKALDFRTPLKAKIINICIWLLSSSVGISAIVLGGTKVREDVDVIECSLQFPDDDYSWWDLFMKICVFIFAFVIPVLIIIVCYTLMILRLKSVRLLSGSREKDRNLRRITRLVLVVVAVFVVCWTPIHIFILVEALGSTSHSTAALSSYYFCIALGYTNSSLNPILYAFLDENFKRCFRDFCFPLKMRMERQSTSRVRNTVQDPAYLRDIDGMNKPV
Turning to `CC(C)(C)NC(=O)[C@@H]1CN(Cc2cccnc2)CCN1C[C@@H](O)C[C@@H](Cc1ccccc1)C(=O)N[C@H]1c2ccccc2C[C@H]1O.O`, the IC50 result was “Not Active”.

Another assay concerns the target Melanocortin receptor 4 (Homo sapiens, UniProt P32245). The assay is classed as cell membranes, Membrane. The following applies: hek293. Note: in other assays of this panel Not Active means under 50% inhibition at 10 µM.
Take `CC(C)(C)NC(=O)[C@@H]1CN(Cc2cccnc2)CCN1C[C@@H](O)C[C@@H](Cc1ccccc1)C(=O)N[C@H]1c2ccccc2C[C@H]1O.O`: the IC50 result is reported as “Not Active”.

The next assay addresses T1, Alpha-1B adrenergic receptor (Rattus norvegicus, UniProt P15823).
T1 sequence (P15823 whole entry): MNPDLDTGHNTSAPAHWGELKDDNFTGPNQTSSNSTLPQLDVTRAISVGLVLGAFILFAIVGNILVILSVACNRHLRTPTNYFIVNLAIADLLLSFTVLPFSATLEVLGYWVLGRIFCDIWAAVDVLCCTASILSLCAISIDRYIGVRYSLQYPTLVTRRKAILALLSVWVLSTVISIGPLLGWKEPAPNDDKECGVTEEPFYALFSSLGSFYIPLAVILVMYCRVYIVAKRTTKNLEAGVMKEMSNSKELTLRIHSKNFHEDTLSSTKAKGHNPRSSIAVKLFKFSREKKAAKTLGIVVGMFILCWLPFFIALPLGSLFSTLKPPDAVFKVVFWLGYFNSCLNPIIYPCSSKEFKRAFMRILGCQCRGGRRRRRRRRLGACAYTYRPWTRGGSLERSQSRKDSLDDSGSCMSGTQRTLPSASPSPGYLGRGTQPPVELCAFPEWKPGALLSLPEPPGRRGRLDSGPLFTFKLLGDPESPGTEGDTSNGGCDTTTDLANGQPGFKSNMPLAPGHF
As to the kind of experiment: DRUGMATRIX: Alpha-1B adrenergic receptor radioligand binding (ligand: prazosin). It is filed as cell membranes, Wistar, Liver, Membrane. The following applies: Not Active = under 50% inhibition at 10 µM.
As for `CC(C)(C)NC(=O)[C@@H]1CN(Cc2cccnc2)CCN1C[C@@H](O)C[C@@H](Cc1ccccc1)C(=O)N[C@H]1c2ccccc2C[C@H]1O.O`, the IC50 result is listed as “Not Active”.

Tested on in a further assay: not listed separately
As to the kind of experiment: DRUGMATRIX: GABAA, Muscimol, Central radioligand binding (ligand: [3H] Muscimol). The assay is classed as cell membranes, Rattus norvegicus, Wistar, Brain, Membrane. The following applies: Not Active = under 50% inhibition at 10 µM.
Turning to `CC(C)(C)NC(=O)[C@@H]1CN(Cc2cccnc2)CCN1C[C@@H](O)C[C@@H](Cc1ccccc1)C(=O)N[C@H]1c2ccccc2C[C@H]1O.O`, the IC50 entry is on record as “Not Active” and the Ki result is “Not Active”.

For a further assay, the target named is Mu-type opioid receptor (Homo sapiens, UniProt P35372). As to the kind of experiment: DRUGMATRIX: Opiate mu (OP3, MOP) radioligand binding (ligand: [3H] Diprenorphine). The assay is classed as cell membranes, CHO-K1, Membrane. The following applies: cho-k1; Not Active = under 50% inhibition at 10 µM.
Chain of Mu-type opioid receptor (P35372 whole entry): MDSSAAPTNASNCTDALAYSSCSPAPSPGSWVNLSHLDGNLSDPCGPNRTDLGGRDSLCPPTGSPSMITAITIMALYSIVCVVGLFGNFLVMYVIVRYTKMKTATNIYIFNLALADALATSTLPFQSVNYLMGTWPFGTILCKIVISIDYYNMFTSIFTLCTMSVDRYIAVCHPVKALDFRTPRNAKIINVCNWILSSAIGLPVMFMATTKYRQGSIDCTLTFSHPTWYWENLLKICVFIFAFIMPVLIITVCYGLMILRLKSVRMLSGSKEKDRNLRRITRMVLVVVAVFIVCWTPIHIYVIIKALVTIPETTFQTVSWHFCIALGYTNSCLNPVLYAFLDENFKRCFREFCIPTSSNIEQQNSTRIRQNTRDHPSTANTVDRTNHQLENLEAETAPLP
As to `CC(C)(C)NC(=O)[C@@H]1CN(Cc2cccnc2)CCN1C[C@@H](O)C[C@@H](Cc1ccccc1)C(=O)N[C@H]1c2ccccc2C[C@H]1O.O`, the IC50 entry is on record as “Not Active”.

In the next assay the target is T2, Neuropeptide Y receptor type 2 (Homo sapiens, UniProt P49146). Note: in other assays of this panel Not Active means under 50% inhibition at 10 µM.
T2 sequence (P49146 whole entry): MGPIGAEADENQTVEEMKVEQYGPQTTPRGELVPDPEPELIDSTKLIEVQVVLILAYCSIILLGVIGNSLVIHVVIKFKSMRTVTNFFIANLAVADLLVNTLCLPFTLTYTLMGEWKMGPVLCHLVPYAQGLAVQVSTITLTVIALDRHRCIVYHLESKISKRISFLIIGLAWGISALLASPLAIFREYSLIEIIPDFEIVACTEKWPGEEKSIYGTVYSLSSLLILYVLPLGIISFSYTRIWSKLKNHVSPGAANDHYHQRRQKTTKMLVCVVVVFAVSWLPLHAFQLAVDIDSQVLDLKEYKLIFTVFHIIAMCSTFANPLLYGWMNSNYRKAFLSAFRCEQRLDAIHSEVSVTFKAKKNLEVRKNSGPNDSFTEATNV
It is filed as cell membranes, Membrane. The note with it: kan-ts.
As to `CC(C)(C)NC(=O)[C@@H]1CN(Cc2cccnc2)CCN1C[C@@H](O)C[C@@H](Cc1ccccc1)C(=O)N[C@H]1c2ccccc2C[C@H]1O.O`, the IC50 entry was “Not Active”.

Tested on in the next assay: not listed separately
Kind of assay: DRUGMATRIX: Serotonin (5-Hydroxytryptamine) 5-HT3 radioligand binding (ligand: [3H] GR-65630). The following applies: hek293; Not Active = under 50% inhibition at 10 µM. The assay is classed as cell membranes, Membrane.
With `CC(C)(C)NC(=O)[C@@H]1CN(Cc2cccnc2)CCN1C[C@@H](O)C[C@@H](Cc1ccccc1)C(=O)N[C@H]1c2ccccc2C[C@H]1O.O`, the IC50 entry is “Not Active” and the Ki entry was “Not Active”.

The next assay addresses 5-hydroxytryptamine receptor 6 (Homo sapiens, UniProt P50406). It is filed as cell membranes, HeLa, Membrane. The following applies: hela.
As to `CC(C)(C)NC(=O)[C@@H]1CN(Cc2cccnc2)CCN1C[C@@H](O)C[C@@H](Cc1ccccc1)C(=O)N[C@H]1c2ccccc2C[C@H]1O.O`, the IC50 result was “Not Active”.

A further assay deals with Beta-1 adrenergic receptor (Homo sapiens, UniProt P08588). Kind of assay: DRUGMATRIX: Adrenergic beta1 radioligand binding (ligand: [125I] Cyanopindolol). The assay is classed as cell membranes, CHO-K1, Membrane. The following applies: cho-k1; Not Active = under 50% inhibition at 10 µM.
Chain of Beta-1 adrenergic receptor (P08588 whole entry): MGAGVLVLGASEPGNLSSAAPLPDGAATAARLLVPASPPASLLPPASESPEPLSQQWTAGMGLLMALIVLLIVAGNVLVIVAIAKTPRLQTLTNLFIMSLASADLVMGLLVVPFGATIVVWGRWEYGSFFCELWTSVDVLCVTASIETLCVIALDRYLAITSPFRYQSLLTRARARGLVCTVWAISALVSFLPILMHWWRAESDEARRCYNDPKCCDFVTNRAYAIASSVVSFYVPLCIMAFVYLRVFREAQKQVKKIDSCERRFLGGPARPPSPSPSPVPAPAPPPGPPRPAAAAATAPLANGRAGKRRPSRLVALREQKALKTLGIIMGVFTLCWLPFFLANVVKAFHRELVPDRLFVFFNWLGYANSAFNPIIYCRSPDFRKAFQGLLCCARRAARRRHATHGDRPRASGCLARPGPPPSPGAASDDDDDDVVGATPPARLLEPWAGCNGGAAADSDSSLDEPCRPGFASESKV
In the case of `CC(C)(C)NC(=O)[C@@H]1CN(Cc2cccnc2)CCN1C[C@@H](O)C[C@@H](Cc1ccccc1)C(=O)N[C@H]1c2ccccc2C[C@H]1O.O`, the IC50 entry was “Not Active”.

Another assay concerns the target T3, 5-hydroxytryptamine receptor 2C (Homo sapiens, UniProt P28335).
T3 sequence (P28335 whole entry): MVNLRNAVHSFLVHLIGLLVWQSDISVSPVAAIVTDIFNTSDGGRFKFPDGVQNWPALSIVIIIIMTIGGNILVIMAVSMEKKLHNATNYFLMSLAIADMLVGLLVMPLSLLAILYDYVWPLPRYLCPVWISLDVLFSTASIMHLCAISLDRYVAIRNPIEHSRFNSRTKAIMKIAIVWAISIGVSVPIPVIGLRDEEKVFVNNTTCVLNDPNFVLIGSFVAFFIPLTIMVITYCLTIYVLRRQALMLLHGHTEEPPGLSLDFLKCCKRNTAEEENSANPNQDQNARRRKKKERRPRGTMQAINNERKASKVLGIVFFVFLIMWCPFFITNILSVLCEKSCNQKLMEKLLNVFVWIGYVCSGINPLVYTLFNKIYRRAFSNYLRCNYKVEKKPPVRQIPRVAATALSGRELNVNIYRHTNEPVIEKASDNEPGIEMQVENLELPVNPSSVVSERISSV
As to the kind of experiment: DRUGMATRIX: Serotonin (5-Hydroxytryptamine) 5-HT2C radioligand binding (ligand: [3H] Mesulergine). The assay is classed as cell membranes, CHO-K1, Membrane. The note with it: cho-k1; Not Active = under 50% inhibition at 10 µM.
Regarding `CC(C)(C)NC(=O)[C@@H]1CN(Cc2cccnc2)CCN1C[C@@H](O)C[C@@H](Cc1ccccc1)C(=O)N[C@H]1c2ccccc2C[C@H]1O.O`, the IC50 result is listed as “Not Active”.

Tested on in the next assay: not listed separately
As to the kind of experiment: DRUGMATRIX: Calcium Channel Type L, Benzothiazepine radioligand binding (ligand: [3H] Diltiazem). The assay is classed as cell membranes, Rattus norvegicus, Wistar, Brain, Membrane. The following applies: Not Active = under 50% inhibition at 10 µM.
With `CC(C)(C)NC(=O)[C@@H]1CN(Cc2cccnc2)CCN1C[C@@H](O)C[C@@H](Cc1ccccc1)C(=O)N[C@H]1c2ccccc2C[C@H]1O.O`, the IC50 entry is listed as “Not Active” and the Ki entry is recorded as “Not Active”.

Another assay has as its target Sigma non-opioid intracellular receptor 1 (Homo sapiens, UniProt Q99720). Kind of assay: DRUGMATRIX: Sigma1 radioligand binding (ligand: [3H] Haloperidol). The assay is classed as cell membranes, Jurkat, Membrane. The note with it: jurkat; Not Active = under 50% inhibition at 10 µM.
As to `CC(C)(C)NC(=O)[C@@H]1CN(Cc2cccnc2)CCN1C[C@@H](O)C[C@@H](Cc1ccccc1)C(=O)N[C@H]1c2ccccc2C[C@H]1O.O`, the IC50 entry is listed as “Not Active”.

Tested on in the next assay: not listed separately
As to the kind of experiment: DRUGMATRIX: Calcium Channel Type L, Phenylalkylamine radioligand binding (ligand: [3H] (-)-Desmethoxyverapamil (D-888)). It is filed as cell membranes, Rattus norvegicus, Wistar, Brain, Membrane. The note with it: Not Active = under 50% inhibition at 10 µM.
As to `CC(C)(C)NC(=O)[C@@H]1CN(Cc2cccnc2)CCN1C[C@@H](O)C[C@@H](Cc1ccccc1)C(=O)N[C@H]1c2ccccc2C[C@H]1O.O`, the IC50 result is “Not Active” and the Ki entry is recorded as “Not Active”.

The next assay has as its target T4, Endothelin-1 receptor (Homo sapiens, UniProt P25101). Note: in other assays of this panel Not Active means under 50% inhibition at 10 µM.
T4 sequence (P25101 whole entry): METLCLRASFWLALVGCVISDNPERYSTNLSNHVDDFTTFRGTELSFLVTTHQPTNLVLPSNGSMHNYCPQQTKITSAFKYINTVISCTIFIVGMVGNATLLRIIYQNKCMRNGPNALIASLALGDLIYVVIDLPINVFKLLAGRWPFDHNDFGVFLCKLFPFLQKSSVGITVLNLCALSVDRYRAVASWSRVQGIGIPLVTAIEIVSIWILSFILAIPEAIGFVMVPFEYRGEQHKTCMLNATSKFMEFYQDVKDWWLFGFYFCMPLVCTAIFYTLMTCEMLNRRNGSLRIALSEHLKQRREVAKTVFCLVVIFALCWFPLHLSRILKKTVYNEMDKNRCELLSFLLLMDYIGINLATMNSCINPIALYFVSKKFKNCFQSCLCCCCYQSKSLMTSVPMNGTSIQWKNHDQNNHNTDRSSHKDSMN
The assay is classed as cell membranes, Membrane. The following applies: cho-k1.
As for `CC(C)(C)NC(=O)[C@@H]1CN(Cc2cccnc2)CCN1C[C@@H](O)C[C@@H](Cc1ccccc1)C(=O)N[C@H]1c2ccccc2C[C@H]1O.O`, the IC50 result is “Not Active”.
